Measured values reported in PMC9030381, “The Discovery of Potent SHP2 Inhibitors with Anti-Proliferative Activity in Breast Cancer Cell Lines” (International Journal of Molecular Sciences, 2022).

How the values were obtained:
SHP2 = target: T1, SHP2 (Homo sapiens, UniProt Q06124); assay: Enzymatic SHP2 inhibition assay (pNPP phosphatase activity); assay type: biochemical; conditions: for inhibition at 100 µM: read-out: inhibition of SHP2 enzyme; for IC50: pNPP substrate, read-out: SHP2 Obtained IC50
T1 construct: purchased BPS Bioscience, Inc., San Diego, CA, USA
T1 sequence (Q06124 1-593): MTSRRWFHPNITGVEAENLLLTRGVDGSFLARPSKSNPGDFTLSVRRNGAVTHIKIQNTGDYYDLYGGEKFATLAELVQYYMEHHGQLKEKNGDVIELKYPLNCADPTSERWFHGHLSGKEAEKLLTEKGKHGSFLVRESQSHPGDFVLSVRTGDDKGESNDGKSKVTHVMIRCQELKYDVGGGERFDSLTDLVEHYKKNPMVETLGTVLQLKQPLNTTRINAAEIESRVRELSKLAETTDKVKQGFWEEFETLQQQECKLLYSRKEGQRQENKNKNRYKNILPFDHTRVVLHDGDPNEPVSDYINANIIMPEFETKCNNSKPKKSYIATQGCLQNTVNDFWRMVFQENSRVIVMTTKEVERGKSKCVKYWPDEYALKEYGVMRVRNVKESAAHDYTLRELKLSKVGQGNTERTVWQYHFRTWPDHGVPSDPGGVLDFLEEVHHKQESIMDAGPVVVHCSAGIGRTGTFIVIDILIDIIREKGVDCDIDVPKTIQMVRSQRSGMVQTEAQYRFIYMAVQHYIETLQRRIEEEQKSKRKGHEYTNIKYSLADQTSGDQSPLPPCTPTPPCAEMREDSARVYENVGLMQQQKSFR
Protocol: Phosphatase Activity Assay (PTP) using p-nitrophenyl phosphate (pNPP) as a substrate was carried out in a total volume of 100 µL. This was done by monitoring the increase in phosphatase absorbance at 405 nm in the presence of the substrate using 96-well microplate reader (Thermo Scientific Multiskan GO, Waltham, MA, USA). The standard reaction mixture consisted of PTP buffer (100 mM NaCl, 2 mM EDTA, 50 mM HEPES, 3 mM DTT, pH 7.4), 100 nM of Shp2 (BPS Bioscience, Inc., San Diego, CA, USA), and 1 mM of pNPP incubated for 90 min at 30 °C. The enzymatic reaction was stopped by the addition of 50 µL of 5 M NaOH. For inhibition reaction, SHP2 enzyme was preincubated with 100 µM compound or their vehicle (DMSO) for 5 min at 37 °C, prior to the incubation with pNPP substrate for 90 min at 30 °C. The same method was used to calculate IC50 values using GraphPad Prism software 8.0 (San Diego, CA, USA). Wells with SHP2 substrate and without compounds were considered controls (enzyme activity is 100%).

SHP1 = SHP1 (Homo sapiens, UniProt P29350); assay: Enzymatic SHP1 inhibition assay (selectivity); assay type: biochemical; conditions: read-out: SHP1 Obtained IC50
MCF-7 [1] = assay: Cell proliferative assay (DAPI cell count); assay type: cell-based; conditions: at 20 μM, 48 h, in comparison with the vehicle
Protocol: (§1) The 5 × 10^3 cells/well of MCF-7 or MDA-MB-231cell-lines were seeded in 96 well plates. The next day, cells were treated with 0.16, 0.8, 4, and 20 µM of NSC 13030, 24198, 57774, 137420, or DMSO (Sigma-Aldrich–Cat D9170, St. Louis, MO, USA) as control. After 48 h of incubation, cells were stained with DAPI (Thermo Fischer–Cat R37606, Waltham, MA, USA) and images of the entire wells were taken with a 20× objective and a DAPI filter cube using Lionheart FX automated microscope. The image analysis and cell counts were done using Gen5 software. All conditions were done in triplicates.

MCF-7 [2] = assay: Cell viability assay (CellTiter 96 AQueous One); assay type: cell-based; conditions: at 20 μM, 48 h
Protocol: (§2) The percentage of viable cells was determined using The CellTiter 96® AQueous One Solution Cell Proliferation Assay (Promega–Cat G3580, Madison, WI, USA). Briefly, 5 × 10^3 cells/well of MCF-7 or MDA-MB-231 were plated in a 96 well culture plate in a total volume of 100 µL/well. The next day, cells were treated with 0.16, 0.8, 4, and 20 µM of NSC 13030, 24198, 57774, 137420, or DMSO as control. After 48 h, 20 µL of CellTiter 96 AQuoeus one solution reagent was added in each well, and incubated for 4 h in a CO2 incubator at 37 °C. The percentage of living cells was calculated by dividing the OD (490 nm) of treated cells by the same concentration of DMSO controls. All conditions were done in triplicates.

MDA-MB-231 [3] = assay: Cell proliferative assay (DAPI cell count); assay type: cell-based; conditions: at 20 μM, 48 h, in comparison with the vehicle
Protocol: as §1

MDA-MB-231 [4] = assay: Cell viability assay (CellTiter 96 AQueous One); assay type: cell-based; conditions: at 20 μM, 48 h
Protocol: as §2

Sequence of SHP1 (P29350 whole entry): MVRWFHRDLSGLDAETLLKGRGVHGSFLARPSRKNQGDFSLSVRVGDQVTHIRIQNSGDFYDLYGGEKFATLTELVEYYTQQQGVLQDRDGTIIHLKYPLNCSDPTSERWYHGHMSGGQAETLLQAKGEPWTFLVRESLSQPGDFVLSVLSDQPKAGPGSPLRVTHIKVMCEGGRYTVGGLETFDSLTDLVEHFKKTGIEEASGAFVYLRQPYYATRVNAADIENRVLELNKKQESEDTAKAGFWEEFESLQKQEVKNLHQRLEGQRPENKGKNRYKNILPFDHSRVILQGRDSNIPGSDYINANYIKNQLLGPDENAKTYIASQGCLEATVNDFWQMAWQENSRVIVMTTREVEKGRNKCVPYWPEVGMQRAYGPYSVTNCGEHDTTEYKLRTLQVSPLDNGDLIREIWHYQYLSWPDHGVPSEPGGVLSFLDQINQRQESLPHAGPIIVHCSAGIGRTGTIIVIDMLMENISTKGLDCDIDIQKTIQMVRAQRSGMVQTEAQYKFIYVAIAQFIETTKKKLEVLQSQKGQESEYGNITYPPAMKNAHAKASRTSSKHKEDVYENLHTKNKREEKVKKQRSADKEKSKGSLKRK

Row | inhibition at 100 µM (SHP2; at 100 μM compound) [%] | IC50 (SHP2) [µM] | IC50 (SHP1) [µM] | selectivity, inhibition activity towards SHP2 over SHP1 (SHP2; SHP2 over SHP1) [fold] | inhibition of SHP2 enzyme (SHP2; at 100 μM compound, 100 µM) | Compound | reduction of MCF-7 proliferation (MCF-7 [1]) [%] | reduction of MCF-7 viability (MCF-7 [2]) [%] | reduction of MDA-MB-231 proliferation (MDA-MB-231 [3]) [%] | reduction of MDA-MB-231 viability (MDA-MB-231 [4]) [%]
1 | 98 | 3.2 | 85.4 |  |  | COc1ccc2nc3cc(Cl)ccc3c(SC(CC(=O)O)C(=O)O)c2c1 (centres unmarked) [Compound 13030] | 42.1 | 64.4 |  | 
2 | 99 | 1.9 | 14.3 |  |  | O=C(O)CSC(Nc1ccccc1C(=O)O)c1ccccc1 (centres unmarked) [Compound 24198] | 34.7 | 65.2 |  | 
3 |  | 0.8 | 164 | 200 | complete SHP2 inhibition | Cc1c2oc3c(C)ccc(C(=O)O)c3nc-2c(C(=O)O)c(N)c1=O [Compound 57774] | 74.5 | 65.8 | 64 | 36.2
4 | 71 | 33 |  |  |  | O=C(c1ccccc1)c1ccc2c(Cl)ccc(C(=O)O)c2c1C(=O)O [Compound 137420] |  |  |  | 
5 | 79 | 4.5 | 15.4 |  |  | Cc1ccc(C(=O)Nc2ccc(S(=O)(=O)O)c3cc(S(=O)(=O)O)cc(S(=O)(=O)O)c23)cc1NC(=O)c1cccc(NC(=O)Nc2cccc(C(=O)Nc3cc(C(=O)Nc4ccc(S(=O)(=O)O)c5cc(S(=O)(=O)O)cc(S(=O)(=O)O)c45)ccc3C)c2)c1 [Suramin, reference compound] |  |  |  | 
